Experimental data taken from ChEMBL document CHEMBL5053535, “Design, synthesis and biological evaluation of novel aminopyrazole- and 7-azaindole-based Nek1 inhibitors and their effects on zebrafish kidney development” (Bioorg Med Chem Lett, 2021).
In brackets after ≈: the same amount, converted by molar mass.

Legend:
[1] = Solubility of the compound in DMEM with 1% DMSO by DAD-HPLC based shake flask method; format: physicochemical
[2] = biological target: Vascular endothelial growth factor receptor 2 (Homo sapiens) (UniProt P35968); assay: Inhibition of human recombinant C-terminal His6 tagged VEGFR2 (789 to 1356 residues) expressed in baculovirus infected insect cells assessed as residual activity at 1 uM pretreated for 20 mins followed by [33P]-ATP addition measured after 120 mins by radiometric hotspot kinase assay relative to control; conditions: time 140.0 min
Sequence of Vascular endothelial growth factor receptor 2 (Homo sapiens) (P35968 whole entry, the tested form may be a part): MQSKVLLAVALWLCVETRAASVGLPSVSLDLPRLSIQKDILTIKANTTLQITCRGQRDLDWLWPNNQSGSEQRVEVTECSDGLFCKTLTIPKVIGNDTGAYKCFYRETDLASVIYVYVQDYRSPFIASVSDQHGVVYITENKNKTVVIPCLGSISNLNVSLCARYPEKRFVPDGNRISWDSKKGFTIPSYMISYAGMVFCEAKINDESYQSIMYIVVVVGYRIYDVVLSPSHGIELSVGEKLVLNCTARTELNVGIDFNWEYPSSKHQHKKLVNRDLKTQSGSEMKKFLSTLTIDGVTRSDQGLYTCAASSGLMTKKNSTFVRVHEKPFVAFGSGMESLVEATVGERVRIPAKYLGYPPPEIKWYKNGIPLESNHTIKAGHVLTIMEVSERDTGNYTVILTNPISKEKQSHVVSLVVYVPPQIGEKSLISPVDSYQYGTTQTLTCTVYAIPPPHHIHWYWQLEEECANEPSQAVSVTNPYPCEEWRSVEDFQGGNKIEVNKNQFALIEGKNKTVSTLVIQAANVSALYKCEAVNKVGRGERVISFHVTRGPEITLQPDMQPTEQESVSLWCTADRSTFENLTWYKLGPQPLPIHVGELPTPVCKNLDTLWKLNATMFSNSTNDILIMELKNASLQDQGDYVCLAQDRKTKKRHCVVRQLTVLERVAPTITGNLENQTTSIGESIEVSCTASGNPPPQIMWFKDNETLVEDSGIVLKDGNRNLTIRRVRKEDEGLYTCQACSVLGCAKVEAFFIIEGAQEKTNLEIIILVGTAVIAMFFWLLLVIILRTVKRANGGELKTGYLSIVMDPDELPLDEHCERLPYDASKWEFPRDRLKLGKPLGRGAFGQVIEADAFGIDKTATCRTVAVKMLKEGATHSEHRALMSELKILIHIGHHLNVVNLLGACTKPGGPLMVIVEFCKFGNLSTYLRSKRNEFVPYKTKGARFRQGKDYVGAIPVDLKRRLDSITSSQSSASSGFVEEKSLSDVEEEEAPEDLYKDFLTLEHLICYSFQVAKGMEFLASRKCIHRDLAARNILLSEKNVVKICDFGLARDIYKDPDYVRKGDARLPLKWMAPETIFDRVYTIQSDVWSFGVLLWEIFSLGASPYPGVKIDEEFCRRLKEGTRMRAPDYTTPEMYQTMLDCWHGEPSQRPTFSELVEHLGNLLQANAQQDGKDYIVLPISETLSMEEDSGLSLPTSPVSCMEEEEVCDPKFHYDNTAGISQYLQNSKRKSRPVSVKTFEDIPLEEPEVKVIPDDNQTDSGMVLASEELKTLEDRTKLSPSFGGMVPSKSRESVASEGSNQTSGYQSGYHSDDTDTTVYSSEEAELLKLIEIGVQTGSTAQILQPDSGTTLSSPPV

Danio rerio [3] = species on record: Danio rerio; assay: (§1) Toxicity in wild type zebra fish model of polycystic kidney disease assessed as increase in fluorescence intensity at 2.5 uM incubated for 48 hrs in presence of N-phenyl thiourea further treated with PT-yellow for 20 mins followed by dye washout and incubated in solution containing compound for 96 hrs by fluorescence imaging analysis; format: organism-based; conditions: zebrafish, in vivo
[4] = Stability of the compound in DMEM measured after 48 hrs by DAD-HPLC method; format: physicochemical; conditions: read-out: Stability
Danio rerio [5] = species on record: Danio rerio; assay: as §1, with “minor tubular volume expansion” for “increase in fluorescence intensity”; format: organism-based; conditions: zebrafish, in vivo
[6] = Solubility of the compound in E3 medium with 0.2% DMSO by DAD-HPLC based shake flask method; format: physicochemical
[7] = biological target: T1, Serine/threonine-protein kinase Nek1 (Homo sapiens, UniProt Q96PY6); assay: Inhibition of human NEK1 using myelin basic protein as substrate assessed as residual activity in presence of [gamma-33P]-ATP by radiometric hotspot kinase assay relative to control
T1 sequence (Q96PY6 whole entry): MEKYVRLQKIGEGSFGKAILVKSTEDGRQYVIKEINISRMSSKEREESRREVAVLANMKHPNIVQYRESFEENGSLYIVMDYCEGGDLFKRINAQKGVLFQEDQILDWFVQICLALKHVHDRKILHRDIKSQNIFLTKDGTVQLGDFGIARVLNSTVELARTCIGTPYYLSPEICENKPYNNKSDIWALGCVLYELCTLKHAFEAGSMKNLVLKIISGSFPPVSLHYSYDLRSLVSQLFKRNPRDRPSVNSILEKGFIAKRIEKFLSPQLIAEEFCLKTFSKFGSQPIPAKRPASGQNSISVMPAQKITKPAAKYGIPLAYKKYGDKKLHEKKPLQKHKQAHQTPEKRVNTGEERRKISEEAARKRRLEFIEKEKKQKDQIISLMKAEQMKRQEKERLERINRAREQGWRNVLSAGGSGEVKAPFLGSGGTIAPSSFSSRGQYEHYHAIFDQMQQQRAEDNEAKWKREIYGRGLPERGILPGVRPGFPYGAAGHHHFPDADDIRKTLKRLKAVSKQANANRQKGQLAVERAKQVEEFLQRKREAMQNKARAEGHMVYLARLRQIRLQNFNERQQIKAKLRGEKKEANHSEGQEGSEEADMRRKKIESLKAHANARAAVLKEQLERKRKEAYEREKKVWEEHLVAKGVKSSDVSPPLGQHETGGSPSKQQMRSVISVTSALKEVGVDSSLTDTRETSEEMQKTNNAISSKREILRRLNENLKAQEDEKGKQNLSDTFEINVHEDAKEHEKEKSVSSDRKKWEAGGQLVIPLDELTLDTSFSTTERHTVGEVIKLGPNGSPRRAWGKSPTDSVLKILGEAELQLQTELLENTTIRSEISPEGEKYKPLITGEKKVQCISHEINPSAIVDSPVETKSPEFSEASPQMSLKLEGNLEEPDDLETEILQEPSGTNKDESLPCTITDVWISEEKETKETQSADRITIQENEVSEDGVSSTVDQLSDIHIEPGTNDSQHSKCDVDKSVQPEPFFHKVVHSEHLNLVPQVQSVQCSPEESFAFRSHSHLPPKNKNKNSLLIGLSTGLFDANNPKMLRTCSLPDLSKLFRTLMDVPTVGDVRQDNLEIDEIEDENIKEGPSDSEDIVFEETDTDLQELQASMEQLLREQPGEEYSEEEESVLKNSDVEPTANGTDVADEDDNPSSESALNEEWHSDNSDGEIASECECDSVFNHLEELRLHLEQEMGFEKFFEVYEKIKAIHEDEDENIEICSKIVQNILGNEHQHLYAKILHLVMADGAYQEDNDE

Danio rerio [8] = species on record: Danio rerio; assay: Toxicity in zebra fish embryos assessed as overall survival at 0.01 to 2.5 uM measured after 96 hrs; format: organism-based; conditions: zebrafish, in vivo, dose 0.01-2.5 µM
[9] = biological target: Wee1-like protein kinase (Homo sapiens) (UniProt P30291); assay: Inhibition of human recombinant full length WEE1 expressed in insect cells using MBP as substrate assessed as residual activity at 1 uM pretreated for 20 mins followed by [33P]-ATP addition measured after 120 mins by radiometric hotspot kinase assay relative to control; conditions: time 140.0 min
Sequence of Wee1-like protein kinase (Homo sapiens) (P30291 whole entry, looked up): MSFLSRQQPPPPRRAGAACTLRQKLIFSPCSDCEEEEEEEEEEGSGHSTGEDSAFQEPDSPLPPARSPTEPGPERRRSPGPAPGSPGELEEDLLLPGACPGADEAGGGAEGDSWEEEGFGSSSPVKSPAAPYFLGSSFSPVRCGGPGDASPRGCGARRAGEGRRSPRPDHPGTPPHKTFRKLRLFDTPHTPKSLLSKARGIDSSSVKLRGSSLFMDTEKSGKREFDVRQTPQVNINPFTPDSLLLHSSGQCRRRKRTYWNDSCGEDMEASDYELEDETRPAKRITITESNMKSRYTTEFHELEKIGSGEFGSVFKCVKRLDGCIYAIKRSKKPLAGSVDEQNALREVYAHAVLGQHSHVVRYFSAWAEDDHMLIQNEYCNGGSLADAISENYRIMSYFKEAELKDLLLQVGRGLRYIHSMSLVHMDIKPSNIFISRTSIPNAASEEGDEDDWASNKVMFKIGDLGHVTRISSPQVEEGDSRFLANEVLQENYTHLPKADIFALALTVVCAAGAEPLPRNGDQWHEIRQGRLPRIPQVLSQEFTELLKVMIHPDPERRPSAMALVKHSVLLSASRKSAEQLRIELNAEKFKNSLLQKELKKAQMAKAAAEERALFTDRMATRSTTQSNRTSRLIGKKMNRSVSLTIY

[10] = biological target: T2, Serine/threonine-protein kinase Nek1 (Homo sapiens) (UniProt Q96PY6); assay: Inhibition of human NEK1 using myelin basic protein as substrate assessed as residual activity at 1 uM in presence of [gamma-33P]-ATP by radiometric hotspot kinase assay relative to control
T2 sequence (whole entry): T1 sequence (Q96PY6 whole entry)

[11] = biological target: T3, Serine/threonine-protein kinase Chk1 (Homo sapiens) (UniProt O14757); assay: (§2) Inhibition of human recombinant full length N-terminal His tagged CHK1 expressed in baculovirus infected Sf21 insect cells using CHKtide as substrate assessed as residual activity at 1 uM pretreated for 20 mins followed by [33P]-ATP addition measured after 120 mins by radiometric hotspot kinase assay relative to control; conditions: time 140.0 min
T3 sequence (whole entry): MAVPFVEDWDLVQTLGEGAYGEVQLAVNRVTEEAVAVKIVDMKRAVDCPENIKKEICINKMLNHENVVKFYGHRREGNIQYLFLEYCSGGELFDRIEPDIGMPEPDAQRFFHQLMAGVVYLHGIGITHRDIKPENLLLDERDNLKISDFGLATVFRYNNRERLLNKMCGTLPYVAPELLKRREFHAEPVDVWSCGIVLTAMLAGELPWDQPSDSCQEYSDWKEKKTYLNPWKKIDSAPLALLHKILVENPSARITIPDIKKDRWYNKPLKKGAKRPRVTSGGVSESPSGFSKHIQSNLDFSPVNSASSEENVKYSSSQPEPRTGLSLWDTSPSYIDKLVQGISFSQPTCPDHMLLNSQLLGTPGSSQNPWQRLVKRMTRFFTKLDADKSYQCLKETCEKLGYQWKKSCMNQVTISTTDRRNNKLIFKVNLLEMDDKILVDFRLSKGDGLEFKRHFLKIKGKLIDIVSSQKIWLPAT

[12] = biological target: T4, Serine/threonine-protein kinase Nek5 (Homo sapiens) (UniProt Q6P3R8); assay: Inhibition of human recombinant NEK5 assessed as residual activity at 1 uM pretreated for 20 mins followed by [33P]-ATP addition measured after 120 mins by radiometric hotspot kinase assay relative to control; conditions: time 140.0 min
T4 sequence (whole entry): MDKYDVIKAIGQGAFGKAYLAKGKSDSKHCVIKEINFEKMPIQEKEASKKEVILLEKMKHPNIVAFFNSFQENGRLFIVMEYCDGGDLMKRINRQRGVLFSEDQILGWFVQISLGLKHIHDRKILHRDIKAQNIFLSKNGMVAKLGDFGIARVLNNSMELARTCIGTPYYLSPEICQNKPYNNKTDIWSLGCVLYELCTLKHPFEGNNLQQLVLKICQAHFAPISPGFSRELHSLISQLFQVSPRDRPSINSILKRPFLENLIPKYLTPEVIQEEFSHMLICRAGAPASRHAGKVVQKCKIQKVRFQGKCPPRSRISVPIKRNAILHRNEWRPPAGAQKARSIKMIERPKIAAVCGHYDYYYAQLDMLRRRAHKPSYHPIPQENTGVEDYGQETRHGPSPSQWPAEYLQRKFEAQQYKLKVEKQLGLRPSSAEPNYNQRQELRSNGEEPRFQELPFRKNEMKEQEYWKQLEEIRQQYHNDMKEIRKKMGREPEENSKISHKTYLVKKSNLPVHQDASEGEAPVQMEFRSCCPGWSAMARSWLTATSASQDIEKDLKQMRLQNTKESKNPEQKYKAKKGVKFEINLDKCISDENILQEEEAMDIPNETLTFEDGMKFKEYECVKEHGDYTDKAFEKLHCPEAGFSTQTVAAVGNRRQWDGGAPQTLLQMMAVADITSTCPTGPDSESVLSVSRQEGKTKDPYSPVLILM

[13] = biological target: Cyclin-dependent kinase 2/cyclin E1 (Homo sapiens) (UniProt P24864+P24941); assay: as §2, with “length C-terminal His6 tagged CDK2/” for “length”, “GST-tagged Cyclin E” for “His tagged CHK1”, “histone H1” for “CHKtide”; conditions: time 140.0 min
Danio rerio [14] = species on record: Danio rerio; assay: Toxicity in zebra fish embryos assessed as phenotype changes at 0.01 to 2.5 uM measured after 96 hrs; format: organism-based; conditions: zebrafish, in vivo, dose 0.01-2.5 µM
Danio rerio [15] = species on record: Danio rerio; assay: as §1, with “0.1” for “2.5”; format: organism-based; conditions: zebrafish, in vivo
[16] = Toxicity in zebra fish embryos assessed as lethality at 1.5 uM measured after 24 hrs relative to control; format: organism-based, Danio rerio; conditions: zebrafish, in vivo, read-out: Activity
Danio rerio [17] = species on record: Danio rerio; assay: Toxicity in zebra fish embryos assessed as curved tail at 0.1 uM measured after 96 hrs; format: organism-based; conditions: zebrafish, in vivo
Danio rerio [18] = species on record: Danio rerio; assay: Toxicity in zebra fish embryos assessed as adverse effects at >0.1 uM measured over 96 hrs; format: organism-based; conditions: zebrafish, in vivo
Danio rerio [19] = species on record: Danio rerio; assay: Toxicity in zebra fish embryos assessed as enlarged yolk sac at 0.1 uM measured after 96 hrs; format: organism-based; conditions: zebrafish, in vivo

| SMILES | solubility [1] | Activity [2] | Activity (Danio rerio [3]) | remaining at 48 h [4] | Activity (Danio rerio [5]) | solubility [6] | IC50 [7] | Activity (Danio rerio [8]) | Activity [9] | Activity [10] | Activity [11] | Activity [12] | Activity [13] | Activity (Danio rerio [14]) | Activity (Danio rerio [15]) | mortality at 24 h, 1.5 µM [16] | Activity (Danio rerio [17]) | Activity (Danio rerio [18]) | Activity (Danio rerio [19]) |
| --- | --- | --- | --- | --- | --- | --- | --- | --- | --- | --- | --- | --- | --- | --- | --- | --- | --- | --- | --- |
| COC(=O)c1cccc(-c2cnc3[nH]cc(-c4ccncc4)c3c2)c1 | 34 µM (≈ 11.2 µg/mL) | 79.4% | Toxic | 88% | Toxic | 30.9 µM (≈ 10.2 µg/mL) | 140 nM | Non-Toxic | 78.9% | 13% | 85% | 58.5% | 1.8% |  |  |  |  |  |  |
| Cc1nc(N)sc1-c1ccnc(Nc2cccc([N+](=O)[O-])c2)n1 |  |  |  |  |  |  |  |  |  |  |  |  |  | Non-Toxic | Toxic | 100% | Toxic | Toxic | Toxic |
